Experimental findings from patent US20230167073A1 (Teijin Pharma Limited, priority 2020, published 2023) are described below.

For one experiment, the target named is T1, Human TRPC6 (Homo sapiens, UniProt Q9Y210).
T1 construct: expressed in transfected cells
T1 sequence (Q9Y210 1-931): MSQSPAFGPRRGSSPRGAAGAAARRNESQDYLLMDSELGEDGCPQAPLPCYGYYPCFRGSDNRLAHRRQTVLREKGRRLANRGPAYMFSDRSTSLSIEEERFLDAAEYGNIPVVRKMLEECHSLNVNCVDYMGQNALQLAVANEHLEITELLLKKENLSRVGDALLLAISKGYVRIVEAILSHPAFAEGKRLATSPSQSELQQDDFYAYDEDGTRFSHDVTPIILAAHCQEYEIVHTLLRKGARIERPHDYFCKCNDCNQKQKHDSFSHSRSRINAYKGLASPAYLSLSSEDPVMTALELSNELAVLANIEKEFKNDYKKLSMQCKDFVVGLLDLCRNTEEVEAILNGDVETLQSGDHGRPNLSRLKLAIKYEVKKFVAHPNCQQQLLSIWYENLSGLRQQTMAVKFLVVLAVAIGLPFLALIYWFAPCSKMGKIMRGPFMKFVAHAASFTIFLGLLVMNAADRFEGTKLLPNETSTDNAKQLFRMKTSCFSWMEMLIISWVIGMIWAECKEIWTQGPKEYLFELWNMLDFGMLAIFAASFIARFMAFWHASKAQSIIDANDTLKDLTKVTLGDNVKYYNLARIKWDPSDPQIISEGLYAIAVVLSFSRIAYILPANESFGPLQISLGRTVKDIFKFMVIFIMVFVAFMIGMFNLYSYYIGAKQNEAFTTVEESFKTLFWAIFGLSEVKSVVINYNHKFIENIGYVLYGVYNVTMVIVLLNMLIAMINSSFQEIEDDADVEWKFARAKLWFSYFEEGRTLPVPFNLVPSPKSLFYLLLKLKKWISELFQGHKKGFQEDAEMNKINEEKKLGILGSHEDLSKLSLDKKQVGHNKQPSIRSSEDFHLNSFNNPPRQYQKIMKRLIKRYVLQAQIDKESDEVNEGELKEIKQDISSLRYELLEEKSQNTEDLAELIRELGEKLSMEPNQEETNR
The experiment in a line: Evaluation of TRPC6 channel inhibitory activity (1), FLIPR Calcium 5 Assay Kit, OAG stimulation (Compound Nos. 1-1293). It is filed as cell-based.
Conditions: not given
Here is the method: Evaluation of TRPC6 Channel Inhibitory Activity (1) (Compound Nos. 1-1293)
In order to investigate TRPC6 channel inhibitory activity of the compounds, evaluation was conducted using FLIPR® Calcium 5 Assay Kit (Molecular Devices) in accordance with the following procedure. Human TRPC6 stably-expressing cells were seeded in a 384-well black clear bottom plate at a density of 5×10^3/well and cultured in an incubator at 37° C. 5% CO2 for 24 hours. Thereafter, 25 μL of a Non Wash Dye Solution, prepared using Component A, 20 mM HEPES-HBSS and 250 mM probenecid, all of which are included in the kit, was added to each well, and the plate was incubated for 30 minutes. A volume of 12.5 μL of a compound solution was added into each well while the fluorescence was measured with FLIPR tetra. After 20 minutes, 12.5 μL of a 1-oleoyl-2-acetyl glycerol (OAG) solution was added at a final concentration of 30 μM. The difference between the minimum fluorescence intensity before the addition of the compound and the maximum fluorescence intensity after the addition of OAG was defined as a signal. An inhibition rate was calculated, assuming the average signal of wells without the compound as the inhibition rate of 0% and the average signal of wells without the compound and OAG as the inhibition rate of 100%. The calculated inhibition rate was analyzed by a four-parameter logistic regression to quantify the inhibition rate in the logarithm of the inverse of the effective concentration which gives a 50% inhibition rate (pIC50). The intensity was expressed by the following symbols (+, ++, +++).
Regarding `Cc1nc(Oc2cc(C#N)ccc2-n2cc(C3=CCNCC3)cn2)cc(C2CCCC2)n1` [Compound 221, 3-(6-cyclopentyl-2-methylpyrimidin-4-yl)oxy-4-[4-(1,2,3,6-tetrahydropyridin-4-yl)pyrazol-1-yl]benzonitrile], the IC50 was 10 to 1000 nM.

The experiment is the same for the next values; noted with them: Human TRPC6 stably-expressing cells, OAG 30 μM, FLIPR Calcium 5 Assay Kit; read-out: Inhibitory activity (pIC50 class) (converted).
Regarding `COCCOc1cc(Oc2cc(C#N)ccc2-c2ncc(CCN)cn2)cc(C)n1` [compound 492, 4-[5-(2-aminoethyl)pyrimidin-2-yl]-3-[2-(2-methoxyethoxy)-6-methylpyridin-4-yl]oxybenzonitrile], the IC50 is 10 to 1000 nM. For the compound `Cc1nc(-c2ccccc2)cn1Cc1cc(C#N)ccc1-n1cc(C(O)CN)cn1` (stereo not drawn) [compound 1128, 4-[4-(2-amino-1-hydroxyethyl)pyrazol-1-yl]-3-[(2-methyl-4-phenylimidazol-1-yl)methyl]benzonitrile], the IC50 is more than 1000 nM. On the same count and under the same terms, the figure for `N#Cc1ccc(-c2ccc(CCN)cc2)c(Oc2cnnc(-c3ccccc3C#N)c2)c1` [Compound 93, 4-[4-(2-aminoethyl)phenyl]-3-[6-(2-cyanophenyl)pyridazin-4-yl]oxybenzonitrile] is less than 10 nM; for `Cc1nc(OCC(F)F)cc(Oc2cc(C#N)ccc2-c2ncc(CN)cn2)n1` [compound 897, 4-[5-(aminomethyl)pyrimidin-2-yl]-3-[6-(2,2-difluoroethoxy)-2-methylpyrimidin-4-yl]oxybenzonitrile] it is more than 1000 nM. `Cc1cc(Oc2cc(C#N)ccc2-c2cc(CCN)ccn2)cc(N2CCOCC2)n1` [compound 638, 4-[4-(2-aminoethyl)pyridin-2-yl]-3-(2-methyl-6-morpholin-4-ylpyridin-4-yl)oxybenzonitrile]: the IC50 was 10 to 1000 nM. As to `CC(C)NC(=O)C(N)c1ccc(-c2ccc(C#N)cc2Oc2cc(C3CC3)nn2C)nc1` (stereo not drawn) [compound 490, 2-amino-2-[6-[4-cyano-2-(5-cyclopropyl-2-methylpyrazol-3-yl)oxyphenyl]pyridin-3-yl]-N-propan-2-ylacetamide], the IC50 was more than 1000 nM. As for `Cc1nc(Oc2cc(C#N)ccc2-c2ncc(CCN)cn2)cc(OC2CC2)n1` [compound 892, 4-[5-(2-aminoethyl)pyrimidin-2-yl]-3-(6-cyclopropyloxy-2-methylpyrimidin-4-yl)oxybenzonitrile], the IC50 is 10 to 1000 nM. On to `COCCCCN(C)c1cc(Oc2cc(C#N)ccc2-c2ncc(CCN)cn2)n(C)n1` [compound 838, 4-[5-(2-aminoethyl)pyrimidin-2-yl]-3-[5-[4-methoxybutyl(methyl)amino]-2-methylpyrazol-3-yl]oxybenzonitrile], for which the IC50 is 10 to 1000 nM. As to `CCc1cc(Oc2cc(C#N)ccc2-c2ccc(CN)nc2)n(C)n1` [compound 330, 4-[6-(aminomethyl)pyridin-3-yl]-3-(5-ethyl-2-methylpyrazol-3-yl)oxybenzonitrile], the IC50 is more than 1000 nM.

On to `Cn1nc(C2CC2)cc1Oc1cc(C#N)ccc1-c1ccc(CCN)cc1` [Compound 213, 4-[4-(2-aminoethyl)phenyl]-3-(5-cyclopropyl-2-methylpyrazol-3-yl)oxybenzonitrile], for which the IC50 was less than 10 nM. With `Cn1nc(C(F)F)cc1Oc1cc(C#N)ccc1-c1ccc(CN)cn1` [compound 828, 4-[5-(aminomethyl)pyridin-2-yl]-3-[5-(difluoromethyl)-2-methylpyrazol-3-yl]oxybenzonitrile], the IC50 is less than 10 nM. With `Cc1nn(C(C)C)cc1Oc1cc(C#N)ccc1-c1ncc(CCN)cn1` [compound 803, 4-[5-(2-aminoethyl)pyrimidin-2-yl]-3-(3-methyl-1-propan-2-ylpyrazol-4-yl)oxybenzonitrile], the IC50 is less than 10 nM.

As for `Cc1cc(Sc2cc(C#N)ccc2-c2ncc(CN)cn2)cc(N2CCOCC2)n1` [compound 1261, 4-[5-(aminomethyl)pyrimidin-2-yl]-3-(2-methyl-6-morpholin-4-ylpyridin-4-yl)sulfanylbenzonitrile], the IC50 was more than 1000 nM.

Take `Cc1nc(Oc2cc(C#N)ccc2-c2ccc(CCN)nc2)cc(-c2cccc(F)c2)n1` [Compound 167, 4-[6-(2-aminoethyl)pyridin-3-yl]-3-[6-(3-fluorophenyl)-2-methylpyrimidin-4-yl]oxybenzonitrile]: the IC50 was 10 to 1000 nM.
